From US6720324B2, “Selective melanin concentrating hormone-1 (MCH1) receptor antagonists and uses thereof” (Synaptic Pharmaceutical Corporation, priority 2000, dated 2004)
Where two headings read alike, the source gives them in different places.

Tests used:
Assay in all cases: Radioligand binding assay, cloned receptor
human GALR1 = biological target: T1, human GALR1 (Homo sapiens, UniProt P47211); settings: read-out: hGALR1 Ki
T1 construct: expressed in transfected cells
T1 sequence (P47211 1-349): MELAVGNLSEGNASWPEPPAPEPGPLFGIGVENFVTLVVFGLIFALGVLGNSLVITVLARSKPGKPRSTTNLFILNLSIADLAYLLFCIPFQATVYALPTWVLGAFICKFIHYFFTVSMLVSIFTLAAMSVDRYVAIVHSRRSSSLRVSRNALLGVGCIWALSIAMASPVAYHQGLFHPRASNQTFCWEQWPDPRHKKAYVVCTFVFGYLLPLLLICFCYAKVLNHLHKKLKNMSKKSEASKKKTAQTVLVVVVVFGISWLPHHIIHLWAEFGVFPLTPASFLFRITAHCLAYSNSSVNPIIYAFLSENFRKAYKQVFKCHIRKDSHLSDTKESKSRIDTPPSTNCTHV
Description: (§1) For binding assays, pellets of transfected cells are suspended in ice-cold buffer (20 mM Tris.HCl, 5 mM EDTA, pH 7.4) and homogenized by sonication for 7 sec. The cell lysates are centrifuged at 200×g for 5 min at 4° C. The supernatants are then centrifuged at 40,000×g for 20 min at 4° C. The resulting pellets are washed once in the homogenization buffer and suspended in binding buffer (see methods for radioligand binding). Protein concentrations are determined by the method of Bradford (1976) using bovine serum albumin as the standard. Binding assays are usually performed immediately, however it is possible to prepare membranes in batch and store frozen in liquid nitrogen for future use.
(§2) The methods to obtain the cDNA of the human NPY1, NPY5, GALR1, GALR2, and GALR3 and rat 5-HT2C receptors, express said receptors in heterologous systems, and carry out assays to determine binding affinity are described in the following publications and above: human NPY1 (Larhammar et al., 1992), human NPY5 (U.S. Pat. No. 5,602,024, the disclosure of which is hereby incorporated by reference in its entirety into this application), human Gal1 (Habert-Ortoli et al., 1994), human Gal2 (Smith et al., 1997), human Gal3 (Smith et al., 1998), and rat 5-HT2C (Julius et al., 1988).

human GALR2 = biological target: T2, human GALR2 (Homo sapiens, UniProt O43603); settings: read-out: hGALR2 Ki
T2 construct: expressed in transfected cells
T2 sequence (O43603 1-387): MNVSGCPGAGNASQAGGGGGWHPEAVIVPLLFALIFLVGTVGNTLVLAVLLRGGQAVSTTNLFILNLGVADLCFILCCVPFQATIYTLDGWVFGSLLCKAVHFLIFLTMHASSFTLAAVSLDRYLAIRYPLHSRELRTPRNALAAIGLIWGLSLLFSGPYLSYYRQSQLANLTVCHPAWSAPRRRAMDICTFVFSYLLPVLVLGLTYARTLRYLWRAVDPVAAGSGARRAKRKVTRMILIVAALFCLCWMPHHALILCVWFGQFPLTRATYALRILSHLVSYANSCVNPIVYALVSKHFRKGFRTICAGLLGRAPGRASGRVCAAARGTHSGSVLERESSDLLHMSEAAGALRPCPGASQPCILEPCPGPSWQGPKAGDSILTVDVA
Description: as §1, §2

human NPY1 = biological target: T3, human NPY1 (Homo sapiens, UniProt P25929); settings: read-out: hNPY1 Ki
T3 construct: expressed in transfected cells
T3 sequence (P25929 1-384): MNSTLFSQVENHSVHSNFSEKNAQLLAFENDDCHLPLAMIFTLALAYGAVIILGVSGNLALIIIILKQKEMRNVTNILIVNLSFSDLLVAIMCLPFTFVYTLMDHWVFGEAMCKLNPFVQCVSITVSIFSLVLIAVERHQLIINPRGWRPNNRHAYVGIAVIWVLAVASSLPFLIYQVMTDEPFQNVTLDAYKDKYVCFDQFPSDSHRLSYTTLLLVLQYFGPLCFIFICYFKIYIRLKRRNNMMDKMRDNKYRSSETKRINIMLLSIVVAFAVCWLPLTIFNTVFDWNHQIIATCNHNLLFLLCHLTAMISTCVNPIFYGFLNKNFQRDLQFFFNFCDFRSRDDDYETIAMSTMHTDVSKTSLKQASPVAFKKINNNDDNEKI
Description: as §1, §2

human NPY5 = biological target: T4, human NPY5 (Homo sapiens, UniProt Q15761); settings: read-out: hNPY5 Ki
T4 construct: expressed in transfected cells
T4 sequence (Q15761 1-445): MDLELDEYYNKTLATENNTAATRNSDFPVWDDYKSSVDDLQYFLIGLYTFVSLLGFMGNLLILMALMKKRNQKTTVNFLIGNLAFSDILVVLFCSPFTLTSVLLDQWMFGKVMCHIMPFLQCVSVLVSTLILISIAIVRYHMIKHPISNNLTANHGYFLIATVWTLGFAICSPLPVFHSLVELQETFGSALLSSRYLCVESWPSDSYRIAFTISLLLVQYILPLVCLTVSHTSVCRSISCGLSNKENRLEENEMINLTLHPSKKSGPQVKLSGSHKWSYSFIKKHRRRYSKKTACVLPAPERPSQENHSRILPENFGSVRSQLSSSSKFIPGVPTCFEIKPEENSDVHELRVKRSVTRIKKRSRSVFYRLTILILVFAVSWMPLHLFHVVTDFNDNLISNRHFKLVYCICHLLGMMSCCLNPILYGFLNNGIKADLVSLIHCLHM
Description: as §1, §2

rat 5-HT2C receptor = biological target: T5, rat 5-HT2C receptor (Rattus norvegicus, UniProt P08909); settings: read-out: r5HT2C Ki
T5 construct: expressed in transfected cells
T5 sequence (P08909 33-460): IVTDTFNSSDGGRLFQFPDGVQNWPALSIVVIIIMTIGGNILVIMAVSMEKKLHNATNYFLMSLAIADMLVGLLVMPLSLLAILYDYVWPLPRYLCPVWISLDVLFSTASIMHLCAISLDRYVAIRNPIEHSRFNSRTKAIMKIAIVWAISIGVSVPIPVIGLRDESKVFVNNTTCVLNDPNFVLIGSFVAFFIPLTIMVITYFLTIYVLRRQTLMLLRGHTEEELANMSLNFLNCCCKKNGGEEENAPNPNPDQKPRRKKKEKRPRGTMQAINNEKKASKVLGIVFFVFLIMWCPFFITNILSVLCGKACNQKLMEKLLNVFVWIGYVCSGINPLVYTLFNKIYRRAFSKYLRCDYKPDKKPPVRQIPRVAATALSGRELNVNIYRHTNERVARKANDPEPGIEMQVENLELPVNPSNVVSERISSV
Description: as §1, §2

2-(3,4-DIFLUOROPHENYL)4,5-DIHYDROIMIDAZOLE-1-CARBOXYLIC ACID {3-[4-PHENYL-4-(4-BROMO-5-METHYLTHIOPNEN-2-YL)]PROPYL}-AMIDE [Example 19]
Ki (human GALR1; Table 2): > 50 µM
Ki (human GALR1; Table 3): > 50 µM
Ki (human GALR2; Table 2): > 50 µM
Ki (human GALR2; Table 3): > 50 µM
Ki (human NPY1; Table 2): > 50 µM
Ki (human NPY1; Table 3): > 50 µM
Ki (human NPY5; Table 2): > 50 µM
Ki (human NPY5; Table 3): > 50 µM
Ki (rat 5-HT2C receptor; Table 2): 11.7 µM
Ki (rat 5-HT2C receptor; Table 3): 11.7 µM
